In patent US9075281B2, “Colored composition and image display structure” (FUJIFILM CORPORATION, priority 2011, dated 2015):

Experiments:
Type in all cases: physicochemical
[1] = Measurement of relative permittivity; conditions: dye itself, extrapolated from 1, 1.5 and 2% by mass n-hexane solutions; 20° C., 40% RH, 1 kHz
Procedure: 4. Measurement of Relative Permittivity
Solutions of Exemplary Compound D8-4 in n-hexane having concentrations of 1% by mass, 1.5% by mass and 2% by mass, respectively, were prepared, and individually injected into glass cells each having transparent indium-tin-oxide electrodes and a cell gap of 10 μm. The electrical capacities of the resultant cells were measured at 20° C. and 40% RH using a type 2353 LCR meter (manufactured by NF Corporation) at a measurement frequency of 1 kHz. The electrical capacity of n-hexane was also measured as a control sample.
The relative permittivities of the dyes (Exemplary Compounds) employed in the Examples were obtained in the same manner, and the results are shown in Table 7.

[2] = Measurement of dynamic viscosity; conditions: 3% by mass solution in n-decane, 20° C.
Procedure: Here, the dynamic viscosity is a value obtained by measurement at 20° C., using a viscometer (type 500, manufactured by Toki Sangyo Co., Ltd.).
5. Measurement of Dynamic Viscosity
A 3% by mass solution of Exemplary Compound D8-4 in n-decane was prepared, and the viscosity of the dye solution was measured at 20° C. using a viscometer (type 500, manufactured by Toki Sangyo Co., Ltd.).
The dynamic viscosities of the dyes (Exemplary Compounds) employed in Examples were obtained in the same manner, and the results are shown in Table 8.

[3] = Absorption maximum wavelength, absorbance and absorption coefficient of the colored composition; conditions: n-hexane solution, 3% by mass or maximum concentration at which the dye completely dissolves; for Absorption Coefficient (ε): calculated by Lambert-Beer law
Procedure: 2. Absorption Maximum Wavelength, Absorbance and Absorption Coefficient of the Colored Composition
The absorption maximum wavelength (λmax) and the absorbance (abs) of the colored composition were measured using a visible-light spectrophotometer (trade name: UV-1800PC, manufactured by Shimadzu Corporation). The absorption coefficient (∈) was calculated based on the Lambert-Beer law.

[4] = Color of colored composition, visually evaluated; conditions: n-hexane solution, visual evaluation
Excerpt: 1. Color of Colored Composition
The color of the colored composition was visually evaluated.

[5] = Solubility of the dye in n-hexane; conditions: in n-hexane at 25° C. and 0.1 MPa
Procedure: 3. Solubility in n-Hexane
The solubility of the dye in a solvent, n-hexane, was determined as follows.
The dye to be measured was dissolved in n-hexane heated at 50° C., to prepare a saturated solution. The saturated solution obtained was then left in an environment of 25° C. and 0.1 MPa for 1 hour. The precipitated dye was filtered, and the precipitation amount was measured, from which the solubility (% by mass) of the dye in n-hexane at 25° C. and 0.1 MPa was calculated.

| Relative Permittivity [1] | Dynamic Viscosity (mPa · s) [2] | Absorption Maximum Wavelength (λ max) [3] | Absorption Coefficient (ε) [3] | Color of Solution [4] | Solubility (% by Mass) [5] | SMILES |
| --- | --- | --- | --- | --- | --- | --- |
| 4.2 | 1.3 mPa·s |  |  |  |  | CCCCC(CC)CNC(=O)C1=CC(=Nc2ccc(N(CC(CC)CCCC)CC(CC)CCCC)cc2C)c2ccccc2C1=O (stereo not shown) [D10-1] |
|  |  | 510 nm | 4.25 × 10^4 | orange | 0.1 % by mass | CCCCC1=NN(CCCC)C(=O)C1=Cc1ccc(N(CCCC)CCCC)cc1C [D2-101, reference compound] |
| 7.6 |  |  |  |  |  | CCCCC(CC)CN(CC(CC)CCCC)c1ccc(/N=C2\C(C#N)=C(C(=O)OC3C(C(C)(C)C)CC(C)CC3C(C)(C)C)c3nc(C(CC)CCCC)nn32)c(C(C)CC)c1 (stereo not shown) [D9-3] |
|  |  | 542 nm |  | red | ≥ 10 or % by mass | CCCCCCCCN1c2cc(C)c(/N=C3/C(C)=Nn4nc(C(C)CNC(=O)C(CCCCCC)Oc5ccc(C(C)(C)CC)cc5C(C)(C)CC)nc43)cc2C(C)CC1(C)C (stereo not shown) [D8-2] |
| 5.6 |  |  |  |  |  | CCCCC(CC)CN(CC(CC)CCCC)c1ccc(/N=C2\C(C#N)=C(C(=O)OC3C(C(C)(C)C)CC(C)CC3C(C)(C)C)c3nc(C(C)(C)C)nn32)c(C(=O)N(CCCC)CCCC)c1 (stereo not shown) [D9-4] |
| 8.0 | 1.2 mPa·s | 510 nm | 4.30 × 10^4 | orange | 3.0 % by mass | CCCCCCN(CCCCCC)c1ccc(C=C2C(=O)N(CC(CC)CCCC)N=C2C)c(C)c1 (stereo not shown) [D2-5] |
| 6.5 | 1.3 mPa·s | 640 nm |  | blue | 3.6 % by mass | CCCCC(CC)CNc1ccc(NCC(CC)CCCC)c2c1C(=O)c1ccccc1C2=O (stereo not shown) [D4-2] |
|  |  |  |  |  | ≤ 0.05 or % by mass | CCN(CC)c1ccc(/N=C2\C(C#N)=C(C(=O)OC)c3nc(-c4ccc(C(C)(C)C)cc4)nn32)c(C)c1 [D9-101, reference compound] |
| 7.5 | 1.2 mPa·s | 505 nm |  |  | ≥ 10 or % by mass | CCCCC(CC)COc1cc(N(CC(CC)CCCC)CC(CC)CCCC)ccc1N=C1C(=O)N(CC(CC)CCCC)N=C1C (stereo not shown) [D6-1] |
|  |  | 500 nm |  |  | ≥ 10 or % by mass | CCCCC(CC)CC1=NN(CC(CC)CCCC)C(=O)C1=Nc1ccc(N(CC)CC)cc1OCC(C)(CC(C)CC(C)C)CC(C)CC(C)(C)C (stereo not shown) [D6-2] |
|  |  | 505 nm | 4.60 × 10^4 |  | 9.8 % by mass | CCCCC(CC)CC1=NN(CC(CC)CCCC)C(=O)C1=Cc1ccc(N(CC)CC)cc1OCC(CC(C)CC(C)CC(C)C)CC(C)CC(C)(C)C (stereo not shown) [D2-2] |
| 7.8 | 1.3 mPa·s | 562 nm |  | red | ≥ 10 or % by mass | CCCCCC(CC)c1nc2n(n1)N=C(C(C)CC)/C2=N/c1ccc(N(CC(CC)CCCC)CC(CC)CCCC)cc1C (stereo not shown) [D8-4] |
|  |  | 500 nm |  | orange | 0.1 % by mass | CCCCCCOc1cc(N(CC)CC)ccc1N=C1C(=O)N(CCCC)N=C1C [D6-101, reference compound] |
| 6.2 | 1.2 mPa·s | 650 nm |  | blue | ≥ 10 or % by mass | CCCCC(CC)CNC(=O)c1cc(N(CC(CC)CCCC)CC(CC)CCCC)ccc1/N=C1\C(C#N)=C(C(=O)OC2C(C(C)(C)C)CC(C)CC2C(C)(C)C)c2nc(C(C)(C)C)nn21 (stereo not shown) [D9-6] |
| 9.5 | 1.2 mPa·s | 528 nm |  |  | 6.2 % by mass | CCCCC(CC)CN(CC(CC)CCCC)c1ccc(C=C2C(=O)N(C(C)CC)C(=O)C(C#N)=C2C(C)CC)c(C)c1 (stereo not shown) [D3-1] |
|  |  | 616 nm |  | blue | 2.2 % by mass | CCCCCCCCN1c2cc(C)c(/N=C3\C(C#N)=C(C(=O)OC4C(C(C)(C)C)CC(C)CC4C(C)(C)C)c4nc(C(C)CCCC)nn43)cc2C(C)CC1(C)C (stereo not shown) [D9-2] |
|  |  | 525 nm |  |  | ≥ 10 or % by mass | CCCCC(CC)CN1C(=O)C(=Cc2ccc(N(CCCC)CCCC)cc2OCC(CC(C)CC(C)CC(C)C)CC(C)CC(C)(C)C)C(C)=C(C#N)C1=O (stereo not shown) [D3-2] |
| 8.5 | 1.3 mPa·s | 508 nm | 4.40 × 10^4 | orange | 8.5 % by mass | CCCCC(CC)CN(CC(CC)CCCC)c1ccc(C=C2C(=O)N(C(C)CC)N=C2C(C)CC)c(C)c1 (stereo not shown) [D2-1] |
| 6.5 | 1.2 mPa·s | 600 nm |  | blue | ≥ 10 or % by mass | CCCCC(CC)CN(CC(CC)CCCC)c1ccc(/N=C2\C(C#N)=C(C(=O)OC3C(C(C)(C)C)CC(C)CC3C(C)(C)C)c3nc(C(C)(C)C)nn32)cc1 (stereo not shown) [D9-5] |
| 7.7 | 1.3 mPa·s |  |  |  |  | CCCCC(CC)CNC(=O)c1cc(N(CC(CC)CCCC)CC(CC)CCCC)ccc1/N=C1/C(CC)=Nn2nc(C(C)C)nc21 (stereo not shown) [D8-9] |
|  |  | 541 nm |  | red | 0.8 % by mass | CCCCCCCCN1c2cc(C)c(/N=C3/C(C)=Nn4nc(C(C)(C)C)nc43)cc2C(C)CC1(C)C (stereo not shown) [D8-101, reference compound] |
|  |  | 642 nm |  | blue | 0.1 % by mass | CCCCCCNc1ccc(NCCCCCC)c2c1C(=O)c1ccccc1C2=O [D4-101, reference compound] |
|  |  |  |  |  | ≦0.01 % by mass | CCCCCCOc1cc(N(CCCC)CCCC)ccc1C=C1C(=O)N(CCCC)C(=O)C(C#N)=C1C [D3-101, reference compound] |
| 8.8 | 1.2 mPa·s |  |  |  |  | CCCCC(CC)CN(CC(CC)CCCC)c1ccc(C=C2C(=O)ON=C2C(C)CC)c(C)c1 (stereo not shown) [D1-1] |
